# ChEMBL document CHEMBL1146726, “Linker-modified quinoline derivatives targeting HIV-1 integrase: synthesis and biological activity” (Bioorg Med Chem Lett, 2004)
# Columns and labels:
# CCRF-CEM = test: Concentration that inhibits 50% of viral particle production in de novo infection assay of CEM cells (ex vivo); Not reached; assay type: functional, cell-based, Homo sapiens
# [1] = tested on: Human immunodeficiency virus 1; test: Inhibition of particle production in de novo infection assay of HIV infected CEM cells.; assay type: functional, organism-based; settings: Human immunodeficiency virus 1, CCRF-CEM
# [2] = target: Human immunodeficiency virus type 1 integrase (Human immunodeficiency virus 1, UniProt Q7ZJM1); test: In vitro inhibition of recombinant integrase activity in a standard 3'-processing assay.
# Human immunodeficiency virus type 1 integrase, sequence (Q7ZJM1 whole entry): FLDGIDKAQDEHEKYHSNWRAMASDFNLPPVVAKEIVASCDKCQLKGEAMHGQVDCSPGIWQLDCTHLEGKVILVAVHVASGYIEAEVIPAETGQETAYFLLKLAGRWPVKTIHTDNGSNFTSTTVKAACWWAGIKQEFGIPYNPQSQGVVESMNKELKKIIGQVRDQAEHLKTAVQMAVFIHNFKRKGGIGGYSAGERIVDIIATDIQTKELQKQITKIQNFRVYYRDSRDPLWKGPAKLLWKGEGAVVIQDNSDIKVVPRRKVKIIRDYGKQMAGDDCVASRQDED
IC50 (CCRF-CEM),IC50 [1] [µM],IC50 [2] [µM],Compound
Not reached,,,O=C(O)c1ccc2ccc(CCc3ccc(O)c(O)c3)nc2c1O
,> 100,> 100,COc1ccc(CNC(=O)Nc2ccc3ccc(C(=O)O)c(O)c3n2)cc1
,> 100,3,O=C(NNc1ccc([N+](=O)[O-])cc1[N+](=O)[O-])c1ccc2ccc(C(=O)O)c(O)c2n1
,1,,O=C(O)c1ccc2ccc(/C=C/c3ccc(O)c(O)c3)nc2c1O
,> 100,,O=C(O)c1ccc2ccc(/C=C/c3cc(O)cc(O)c3)nc2c1O
,> 100,30,O=C(/C=C(\O)c1ccccc1)c1ccc2ccc(C(=O)O)c(O)c2n1
,25,6.5,COc1cc(CNC(=O)c2ccc3ccc(C(=O)O)c(O)c3n2)cc(O)c1O
,2,5,O=C(NCc1ccc(O)c(O)c1)c1ccc2ccc(C(=O)O)c(O)c2n1
,55,> 100,O=C(NCc1ccc(O)c(O)c1)Nc1ccc2ccc(C(=O)O)c(O)c2n1
,45,> 100,O=C(NNc1ccccc1)c1ccc2ccc(C(=O)O)c(O)c2n1
,10,5,O=C(NCc1ccc(O)cc1O)c1ccc2ccc(C(=O)O)c(O)c2n1
,> 100,> 100,O=C(Nc1ccc(O)c(O)c1)Nc1ccc2ccc(C(=O)O)c(O)c2n1
,> 100,> 100,O=C(Nc1ccc2ccc(C(=O)O)c(O)c2n1)c1ccccc1
,40,5,O=C(NCc1cccc(O)c1O)c1ccc2ccc(C(=O)O)c(O)c2n1
,4,1.5,O=C(NCc1ccc(O)c(O)c1O)c1ccc2ccc(C(=O)O)c(O)c2n1
,> 100,> 100,O=C(NCc1cc(O)cc(O)c1)c1ccc2ccc(C(=O)O)c(O)c2n1
,2,6.5,COc1cc(NC(=O)c2ccc3ccc(C(=O)O)c(O)c3n2)cc(O)c1O

Compound,IC50 (CCRF-CEM),IC50 [1] [µM],IC50 [2] [µM]
O=C(Nc1ccc(O)c(O)c1)c1ccc2ccc(C(=O)O)c(O)c2n1,,30,0.9
